The source of these data is patent US20230114241A1, “METHODS OF TREATING EPILEPSY USING THE SAME” (Trevena, Inc., priority 2019, published 2023).

Some results are limits rather than exact numbers.

Assay [1] addresses T1, human sphingosine-1-phosphate receptor 1 (S1P1) (Homo sapiens, UniProt P21453). Nature of the assay: β-Arrestin2 recruitment assay (PathHunter), S1P1 CHO-K1 cells. Particulars: for Emax: efficacy normalized to maximum efficacy of fingolimod, read-out: hS1P1 B-arrestin2 SPAN; for EC50: β-arrestin2 recruitment, read-out: hS1P1 B-arrestin2 pEC50 (converted). The format is cell-based. How it is done:
Stable clonal Chinese hamster ovary K1 (CHO-K1) cells co-expressing EA-β-arrestin2 and the human sphingosine-1-phosphate receptor 1 (NM_001400, S1P1) with a C-terminal Prolink™ tag were purchased from DiscoverX corporation (Cat #: 93-0207C2).
Cell lines were cultured in AssayComplete™ Media 6 (DiscoverX Corporation, Cat #: 920018GF2) at 37° C. and 5% CO2 in a humidified CO2 and temperature-controlled incubator. To begin assay plating, cells were washed with Dulbecco's phosphate buffered saline (CellGro, Cat #: 21-031-CV) and lifted from the culturing flask by incubation (37° C., 5 min) with CellStripper (Cellgro, Cat #: 25-056-CI). […] Plated cells were incubated overnight at 37° C. and 5% CO2 in a humidified CO2 and temperature-controlled incubator.
Agonist-promoted β-arrestin2 recruitment to the sphingosine-1-phosphate 1 receptor was determined using the β-arrestin PathHunter® Detection kit (DiscoverX Corporation, Cat #: 93-0001). […] In cells that stably express these fusion proteins, stimulation with a cognate agonist results in the interaction of β-arrestin2 and the Prolink™-tagged GPCR. This allows the complementation of the two β-galactosidase fragments and results in the formation of a functional enzyme with β-galactosidase activity. […] Following a 60 minute incubation at 37° C. and 5% CO2 in a humidified CO2 and temperature-controlled incubator, the components of the β-arrestin PathHunter® Detection kit were added as per the manufacturer's instructions. After an hour incubation at room temperature, plates were analyzed by a BMG PheraStar microplate reader.
These values are normalized to fingolimod, a known agonist of the sphingosine-1-phosphate 1 receptor.
For orientation: Recruitment of arrestin is a read-out of receptor activation apart from second messengers.
Target sequence in this assay (P21453 whole entry): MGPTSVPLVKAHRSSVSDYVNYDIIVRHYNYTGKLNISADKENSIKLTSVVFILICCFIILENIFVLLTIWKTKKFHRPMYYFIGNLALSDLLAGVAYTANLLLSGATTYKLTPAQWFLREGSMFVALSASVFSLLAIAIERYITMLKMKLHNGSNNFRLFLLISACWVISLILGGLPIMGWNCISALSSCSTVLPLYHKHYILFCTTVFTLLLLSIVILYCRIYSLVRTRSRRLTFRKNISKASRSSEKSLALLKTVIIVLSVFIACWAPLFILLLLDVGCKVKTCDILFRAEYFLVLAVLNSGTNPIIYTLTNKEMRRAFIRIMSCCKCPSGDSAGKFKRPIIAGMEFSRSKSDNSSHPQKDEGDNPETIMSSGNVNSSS
Target sequence in this assay (P32121 whole entry partner): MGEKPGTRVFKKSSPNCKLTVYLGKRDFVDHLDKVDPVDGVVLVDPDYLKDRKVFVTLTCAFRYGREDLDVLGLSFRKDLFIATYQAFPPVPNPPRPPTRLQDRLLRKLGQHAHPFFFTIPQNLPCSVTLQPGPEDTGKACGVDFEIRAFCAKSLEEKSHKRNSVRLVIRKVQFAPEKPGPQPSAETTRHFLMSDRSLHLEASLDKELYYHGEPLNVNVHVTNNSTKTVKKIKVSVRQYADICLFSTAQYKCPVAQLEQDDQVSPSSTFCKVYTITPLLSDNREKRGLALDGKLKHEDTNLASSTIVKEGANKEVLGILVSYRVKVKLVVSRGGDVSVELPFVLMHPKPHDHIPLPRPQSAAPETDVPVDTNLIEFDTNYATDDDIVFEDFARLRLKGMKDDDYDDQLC

In assay [2] the target is T1, human sphingosine-1-phosphate receptor 1 (S1P1). Description: Inhibition of cAMP production (HTRF cAMP HiRange), S1P1 CHO-K1 cells. The format is cell-based. Particulars: for Emax: CHO-K1, efficacy normalized to maximum efficacy of fingolimod, read-out: hS1P1 CAMP SPAN; for EC50: read-out: hS1P1 CAMP pEC50 (converted). In outline: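 Intracellular cAMP changes read by TR-FRET (HTRF HiRange, 1 h room temperature) after 30 min compound exposure at 37 °C. Cells: overnight-plated CHO-K1 stably expressing tagged human S1P1 with EA-β-arrestin2. Responses normalized to fingolimod.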
Target sequence in this assay (P21453 whole entry): as the sequence (P21453 whole entry) above
(Cyclic AMP is a second messenger, typically raised through Gs and lowered through Gi signalling.)

Setting [3] is: inhibition of cAMP production, S1P1.
[4] abbreviates: CHO-K1, β-arrestin2 recruitment.
Setting [5] is: inhibition of cAMP production, potency.

Turning to `CCC1CC(=O)c2ccc(-c3nc(-c4cccnc4)no3)cc2O1` (centres unmarked) [Compound 588, 2-ethyl-7-[3-(pyridin-3-yl)-1,2,4-oxadiazol-5-yl]-3,4-dihydro-2H-1-benzopyran-4-one], the Emax in assay [1] (CHO-K1) and in assay [2] was < 75% in each case. Moreover, the EC50 in assay [1] (S1P1) is > 10 µM; in assay [2] (setting [3]), > 0.316 µM.

As to `COCC1(COC)CC(=O)c2cc(-c3nc(-c4ccncc4)no3)ccc2O1` [Compound 494, 2,2-bis(methoxy-methyl)-6-[3-(pyridin-4-yl)-1,2,4-oxadiazol-5-yl]-3,4-dihydro-2H-1-benzopyran-4-one], the Emax in assay [1] (CHO-K1) and in assay [2] was < 75% each time. The EC50 in assay [1] (S1P1) was < 10 µM; in assay [2] (setting [3]), > 0.316 µM.

Turning to `Cc1ccccc1-c1nc(-c2ccc3c(c2)nnn3CC(C)(C)CO)no1` [Compound 505, 2,2-dimethyl-3-(5-(5-(o-tolyl)-1,2,4-oxadiazol-3-yl)-1H-benzo[d][1,2,3]triazol-1-yl)propan-1-ol], the Emax in assay [1] (CHO-K1) was > 75%; in assay [2] it was < 75%. Moreover, the values for the EC50 in assay [1] (S1P1) and in assay [2] (setting [3]) were > 10 µM and > 0.316 µM, respectively.

Take `COC(=O)CCn1nnc2cc(-c3noc(-c4ccccc4Br)n3)ccc21` [Compound 161, methyl 3-(5-(5-(2-bromophenyl)-1,2,4-oxadiazol-3-yl)-1H-benzo[d][1,2,3]triazol-1-yl)propanoate]: the Emax in assay [1] (setting [4]) is > 75%; in assay [2] (inhibition of cAMP production) it was < 75%. In addition, the EC50 was > 10 µM in assay [1] (potency) and > 0.316 µM in assay [2] (setting [5]).

For `CCC1(CC)CC(=O)c2cc(-c3nc(-c4cccnn4)no3)ccc2O1` [Compound 621, 2,2-diethyl-6-(3-(pyridazin-3-yl)-1,2,4-oxadiazol-5-yl)chroman-4-one], the Emax in assay [1] (CHO-K1) and in assay [2] was > 75% throughout. In addition, the EC50 in assay [1] (S1P1) is > 10 µM; in assay [2] (setting [3]), > 0.316 µM.

Take `Fc1cc(-c2noc(-c3ccc4c(c3)nnn4C3CCCC3)n2)ccc1C(F)(F)F` [Compound 1, 1-cyclopentyl-5-{3-[3-fluoro-4-(trifluoro-methyl)phenyl]-1,2,4-oxadiazol-5-yl}-1H-1,2,3-benzotriazole]: the Emax in assay [1] (setting [4]) and in assay [2] (inhibition of cAMP production) was < 75% throughout. Besides, the figures for the EC50 in assay [1] (potency) and in assay [2] (setting [5]) were > 10 µM and > 0.316 µM, respectively.

Regarding `CCC1(CC)CC(=O)c2cc(-c3nc(-c4cnc[nH]4)no3)ccc2O1` [Compound 466, 6-(3-(1H-imidazol-5-yl)-1,2,4-oxadiazol-5-yl)-2,2-diethylchroman-4-one], the Emax in assay [1] (CHO-K1) and in assay [2] was > 75% in each case. Further, the EC50 in assay [1] (S1P1) was > 10 µM; in assay [2] (setting [3]) it was > 0.316 µM.

Consider `CCC1(CC)C/C(=N/O)c2cc(-c3nc(-c4cccnc4)no3)ccc2O1` [Compound 430, N-[(4Z)-2,2-diethyl-6-[3-(pyridin-3-yl)-1,2,4-oxadiazol-5-yl]-3,4-dihydro-2H-1-benzopyran-4-ylidene]hydroxylamine], for which the Emax in assay [1] (CHO-K1) and in assay [2] was > 75% each time. The EC50 in assay [1] (S1P1) is > 10 µM; in assay [2] (setting [3]), > 0.316 µM.

Regarding `Cc1ccncc1-c1nc(-c2ccc3c(c2)nnn3CC(C)(C)CO)no1` [Compound 541, 2,2-dimethyl-3-(5-(5-(4-methylpyridin-3-yl)-1,2,4-oxadiazol-3-yl)-1H-benzo[d] [1,2,3]triazol-1-yl)propan-1-ol], the Emax in assay [1] (CHO-K1) and in assay [2] was < 75% in each case. The results for the EC50 in assay [1] (S1P1) and in assay [2] (setting [3]) were > 10 µM and > 0.316 µM, respectively.

`O=C1CC(CO)(CO)Oc2ccc(-c3nc(-c4cccnc4)no3)cc21` [Compound 478, 2,2-bis(hydroxymethyl)-6-[3-(pyridin-3-yl)-1,2,4-oxadiazol-5-yl]-3,4-dihydro-2H-1-benzopyran-4-one]: the Emax in assay [1] (CHO-K1) and in assay [2] was < 75% each time. In addition, the EC50 is > 10 µM in assay [1] (S1P1) and > 0.316 µM in assay [2] (setting [3]).

`CCC1(CC)CC(=O)c2cc(-c3ncc(-c4cccnc4)cn3)ccc2O1` [Compound 509, 2,2-diethyl-6-(5-(pyridin-3-yl)pyrimidin-2-yl)chroman-4-one]: the Emax is > 75% in assay [1] (CHO-K1) and < 75% in assay [2]. Further, the EC50 in assay [1] (S1P1) was > 10 µM; in assay [2] (setting [3]) it was > 0.316 µM.

As for `CCC1(CC)CC(=O)c2cc(-c3nnc(-c4ccccc4OC)o3)ccc2O1` [Compound 300, 2,2-diethyl-6-(5-(2-methoxyphenyl)-1,3,4-oxadiazol-2-yl)chroman-4-one], the Emax in assay [1] (setting [4]) and in assay [2] (inhibition of cAMP production) was > 75% in each case. For the same compound, the EC50 was > 10 µM in assay [1] (potency) and > 0.316 µM in assay [2] (setting [5]).

With `CCC1(CC)CC(=O)c2cc(-c3nc(-c4cncc(F)c4)no3)ccc2O1` [Compound 551, 2,2-diethyl-6-(3-(5-fluoropyridin-3-yl)-1,2,4-oxadiazol-5-yl)chroman-4-one], the Emax was < 75% in assay [1] (CHO-K1) and > 75% in assay [2]. Moreover, the EC50 in assay [1] (S1P1) is < 10 µM; in assay [2] (setting [3]), < 0.316 µM.

Take `CCC1(CC)CC(=O)c2cc(-c3nc(-c4cccc(Cl)c4)no3)ccc2O1` [Compound 261, 6-[3-(3-chlorophenyl)-1,2,4-oxadiazol-5-yl]-2,2-diethyl-chroman-4-one]: the Emax in assay [1] (setting [4]) was < 75%; in assay [2] (inhibition of cAMP production) it was > 75%. The EC50 is < 10 µM in assay [1] (potency) and > 0.316 µM in assay [2] (setting [5]).

Take `COc1ccc(-c2nc(-c3cccc4[nH]ccc34)ns2)cc1` [Compound 361, 4-[5-(4-methoxyphenyl)-1,2,4-thiadiazol-3-yl]-1H-indole]: the Emax in assay [1] (setting [4]) and in assay [2] (inhibition of cAMP production) was < 75% each time. Further, the values for the EC50 in assay [1] (potency) and in assay [2] (setting [5]) were > 10 µM and > 0.316 µM, respectively.

For the compound `COc1ccccc1-c1nnc(-c2ccc3[nH]oc(=O)c3c2)o1` [Compound 339, 5-[5-(2-methoxyphenyl)-1,3,4-oxadiazol-2-yl]-1,3-dihydro-2,1-benzoxazol-3-one], the Emax in assay [1] (setting [4]) and in assay [2] (inhibition of cAMP production) was < 75% throughout. The results for the EC50 in assay [1] (potency) and in assay [2] (setting [5]) were > 10 µM and > 0.316 µM, respectively.

For `CCC1(CC)CC(=O)c2cc(-c3nc(-c4cncc(S(N)(=O)=O)c4)no3)ccc2O1` [Compound 603, 5-(5-(2,2-diethyl-4-oxochroman-6-yl)-1,2,4-oxadiazol-3-yl)pyridine-3-sulfonamide], the Emax in assay [1] (CHO-K1) and in assay [2] was > 75% throughout. Also, the EC50 in assay [1] (S1P1) was < 10 µM; in assay [2] (setting [3]), < 0.316 µM.

As for `CC(C)n1nnc2cc(-c3noc(C4CCCC4)n3)ccc21` [Compound 278, 5-(5-cyclopentyl-1,2,4-oxadiazol-3-yl)-1-(propan-2-yl)-1H-1,2,3-benzotriazole5-(5-cyclopentyl-1,2,4-oxadiazol-3-yl)-1-(propan-2-yl)-1H-1,2,3-benzotriazole], the Emax in assay [1] (setting [4]) and in assay [2] (inhibition of cAMP production) was < 75% throughout.

Consider `COc1cc(NC(C)=O)ccc1-c1nc(-c2ccncc2)no1` [Compound 582, N-{3-methoxy-4-[3-(pyridin-4-yl)-1,2,4-oxadiazol-5-yl]phenyl}acetamide], for which the figures for the Emax in assay [1] (CHO-K1) and in assay [2] were < 75% and > 75%, respectively. The EC50 was > 10 µM in assay [1] (S1P1) and > 0.316 µM in assay [2] (setting [3]).

For the compound `CC1(C)Oc2ccc(-c3nc(-c4ccncc4)no3)cc2C1=O` [Compound 480, 2,2-dimethyl-5-[3-(pyridin-4-yl)-1,2,4-oxadiazol-5-yl]-2,3-dihydro-1-benzofuran-3-one], the Emax was < 75% in assay [1] (CHO-K1) and > 75% in assay [2]. Moreover, the EC50 in assay [1] (S1P1) is > 10 µM; in assay [2] (setting [3]) it was > 0.316 µM.

On to `CN1C(=O)Cc2cc(-c3nc(-c4cccnc4)no3)ccc21` [Compound 377, 1-methyl-5-[3-(pyridin-3-yl)-1,2,4-oxadiazol-5-yl]-2,3-dihydro-1H-indol-2-one], for which the Emax in assay [1] (CHO-K1) and in assay [2] was < 75% throughout. The EC50 is > 10 µM in assay [1] (S1P1) and > 0.316 µM in assay [2] (setting [3]).

Turning to `CCCn1nnc2cc(-c3nc(-c4ccc(F)cc4)no3)ccc21` [Compound 5, 5-[3-(4-fluorophenyl)-1,2,4-oxadiazol-5-yl]-1-propyl-1H-1,2,3-benzotriazole], the Emax in assay [1] (setting [4]) and in assay [2] (inhibition of cAMP production) was < 75% throughout. Also, the values for the EC50 in assay [1] (potency) and in assay [2] (setting [5]) were > 10 µM and > 0.316 µM, respectively.
